In patent US10167262B2, “Herbicidal substituted 3-arylpyrazoles” (FMC CORPORATION, priority 2014, dated 2019):

Assays:
Type in all cases: in vivo
[1] = test system: goosegrass (Eleusine indica); assay: Test E pre-/postemergence greenhouse test, plant response rating 0-100; settings: Preemergence, scale 0 to 100
[2] = test system: yellow nutsedge (Cyperus esculentus); assay: as above; settings: Preemergence, scale 0 to 100
[3] = test system: green foxtail (Setaria viridis); assay: as above; settings: Preemergence, scale 0 to 100
[4] = test system: johnsongrass (Sorghum halepense); assay: as above; settings: Preemergence, scale 0 to 100
[5] = test system: morningglory (Ipomoea coccinea); assay: as above; settings: Preemergence, scale 0 to 100
[6] = test system: giant foxtail (Setaria faberii); assay: as above; settings: Preemergence, scale 0 to 100
[7] = test system: downy bromegrass (Bromus tectorum); assay: Test C postemergence greenhouse test, plant response rating 0-100
Summary of the method: (§1)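 Scores run from 0, meaning no effect, to 100, meaning complete control, and come from visual comparison with untreated controls. Treatment was a postemergence application to plants 2–18 cm tall. Assessment followed 13 to 15 days of greenhouse growth.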

[8] = test system: canarygrass (Phalaris minor); assay: as above
Summary of the method: as §1

[9] = test system: winter barley (Hordeum vulgare); assay: as above
Summary of the method: as §1

[10] = test system: bermudagrass (Cynodon dactylon); assay: as above
Summary of the method: as §1

[11] = test system: goosegrass (Eleusine indica); assay: as above
Summary of the method: as §1

[12] = test system: green foxtail (Setaria viridis); assay: as above
Summary of the method: as §1

[13] = test system: woolly cupgrass (Eriochloa villosa); assay: as above
Summary of the method: as §1

[14] = test system: cocklebur (common cocklebur, Xanthium strumarium); assay: as above
Summary of the method: as §1

[15] = test system: surinam grass (Brachiaria decumbens); assay: as above
Summary of the method: as §1

[16] = test system: windgrass (Apera spica-venti); assay: as above
Summary of the method: as §1

[17] = test system: deadnettle (henbit deadnettle, Lamium amplexicaule); assay: as above
Summary of the method: as §1

For `O=C(c1ccccc1)c1cn(CO)nc1-c1cc(Cl)cc(Cl)c1` [Compound 15, [3-(3,5-dichlorophenyl)-1-(hydroxymethyl)-1H-pyrazol-4-yl]phenylmethanone], the “Goosegrass plant response rating” value ([1]; 31 g ai/ha) was 0, the “Goosegrass plant response rating” value ([1]; 125 g ai/ha) was 0 and the “Goosegrass plant response rating” value ([1]; 250 g ai/ha) was 0. For the same compound, the “Goosegrass plant response rating” value ([1]; 500 g ai/ha) was 0, the “Nutsedge, Yellow plant response rating” value ([2]; 31 g ai/ha) was 15 and the “Nutsedge, Yellow plant response rating” value ([2]; 62 g ai/ha) was 35. The “Nutsedge, Yellow plant response rating” value ([2]; 125 g ai/ha) was 10, the “Nutsedge, Yellow plant response rating” value ([2]; 250 g ai/ha) was 0 and the “Nutsedge, Yellow plant response rating” value ([2]; 500 g ai/ha) was 0. The “Foxtail, Green plant response rating” value ([3]; 31 g ai/ha) was 0, the “Foxtail, Green plant response rating” value ([3]; 62 g ai/ha) was 0 and the “Foxtail, Green plant response rating” value ([3]; 125 g ai/ha) was 0. The “Foxtail, Green plant response rating” value ([3]; 250 g ai/ha) was 0, the “Foxtail, Green plant response rating” value ([3]; 500 g ai/ha) was 0 and the “Johnsongrass plant response rating” value ([4]; 31 g ai/ha) was 0. The “Johnsongrass plant response rating” value ([4]; 62 g ai/ha) was 0, the “Johnsongrass plant response rating” value ([4]; 125 g ai/ha) was 0 and the “Johnsongrass plant response rating” value ([4]; 250 g ai/ha) was 0. The “Johnsongrass plant response rating” value ([4]; 500 g ai/ha) was 0, the “Morningglory plant response rating” value ([5]; 62 g ai/ha) was 0 and the “Morningglory plant response rating” value ([5]; 125 g ai/ha) was 0. For the same compound, the “Morningglory plant response rating” value ([5]; 250 g ai/ha) was 0, the “Morningglory plant response rating” value ([5]; 500 g ai/ha) was 0 and the “Foxtail, Giant plant response rating” value ([6]; 31 g ai/ha) was 0. For the same compound, the “Foxtail, Giant plant response rating” value ([6]; 62 g ai/ha) was 0, the “Foxtail, Giant plant response rating” value ([6]; 125 g ai/ha) was 0 and the “Foxtail, Giant plant response rating” value ([6]; 250 g ai/ha) was 0. The “Foxtail, Giant plant response rating” value ([6]; 500 g ai/ha) was 0.

`COCC(=O)n1cc(C(=O)c2ccccc2)c(-c2cc(Cl)cc(Cl)c2)n1` [Compound 16, 1-[4-benzoyl-3-(3,5-dichlorophenyl)-1H-pyrazol-1-yl]-2-methoxyethanone] was tested, and the “Goosegrass plant response rating” value ([1]; 31 g ai/ha) was 0, the “Goosegrass plant response rating” value ([1]; 62 g ai/ha) was 0 and the “Goosegrass plant response rating” value ([1]; 125 g ai/ha) was 0. The “Goosegrass plant response rating” value ([1]; 250 g ai/ha) was 40, the “Goosegrass plant response rating” value ([1]; 500 g ai/ha) was 50 and the “Nutsedge, Yellow plant response rating” value ([2]; 31 g ai/ha) was 0. For the same compound, the “Nutsedge, Yellow plant response rating” value ([2]; 62 g ai/ha) was 20, the “Nutsedge, Yellow plant response rating” value ([2]; 125 g ai/ha) was 35 and the “Nutsedge, Yellow plant response rating” value ([2]; 250 g ai/ha) was 0. The “Nutsedge, Yellow plant response rating” value ([2]; 500 g ai/ha) was 0, the “Foxtail, Green plant response rating” value ([3]; 31 g ai/ha) was 0 and the “Foxtail, Green plant response rating” value ([3]; 62 g ai/ha) was 0. For the same compound, the “Foxtail, Green plant response rating” value ([3]; 125 g ai/ha) was 0, the “Foxtail, Green plant response rating” value ([3]; 250 g ai/ha) was 0 and the “Foxtail, Green plant response rating” value ([3]; 500 g ai/ha) was 0. For the same compound, the “Johnsongrass plant response rating” value ([4]; 31 g ai/ha) was 0, the “Johnsongrass plant response rating” value ([4]; 62 g ai/ha) was 0 and the “Johnsongrass plant response rating” value ([4]; 125 g ai/ha) was 0. For the same compound, the “Johnsongrass plant response rating” value ([4]; 250 g ai/ha) was 0, the “Johnsongrass plant response rating” value ([4]; 500 g ai/ha) was 30 and the “Morningglory plant response rating” value ([5]; 31 g ai/ha) was 0. The “Morningglory plant response rating” value ([5]; 62 g ai/ha) was 20, the “Morningglory plant response rating” value ([5]; 125 g ai/ha) was 20 and the “Morningglory plant response rating” value ([5]; 250 g ai/ha) was 0. For the same compound, the “Morningglory plant response rating” value ([5]; 500 g ai/ha) was 40, the “Foxtail, Giant plant response rating” value ([6]; 31 g ai/ha) was 0 and the “Foxtail, Giant plant response rating” value ([6]; 62 g ai/ha) was 0. For the same compound, the “Foxtail, Giant plant response rating” value ([6]; 125 g ai/ha) was 0, the “Foxtail, Giant plant response rating” value ([6]; 250 g ai/ha) was 0 and the “Foxtail, Giant plant response rating” value ([6]; 500 g ai/ha) was 0.

For `CCn1cc(C(=O)c2ccccc2)c(-c2cc(Cl)cc(Cl)c2)n1` [Compound 31, [3-(3,5-dichlorophenyl)-1-ethyl-1H-pyrazol-4-yl]phenylmethanone], the “Plant response rating, Bromegrass, Downy” value ([7]; 16 g ai/ha) was 0, the “Plant response rating (0 to 100), Bromegrass, Downy” value ([7]; 31 g ai/ha) was 0 and the “Plant response rating (0 to 100), Bromegrass, Downy” value ([7]; 62 g ai/ha) was 0. For the same compound, the “Plant response rating (0 to 100), Bromegrass, Downy” value ([7]; 125 g ai/ha) was 0, the “Plant response rating, Canarygrass” value ([8]; 16 g ai/ha) was 0 and the “Plant response rating (0 to 100), Canarygrass” value ([8]; 31 g ai/ha) was 0. For the same compound, the “Plant response rating (0 to 100), Canarygrass” value ([8]; 62 g ai/ha) was 0, the “Plant response rating (0 to 100), Canarygrass” value ([8]; 125 g ai/ha) was 0 and the “Plant response rating, Barley” value ([9]; 16 g ai/ha) was 0. The “Plant response rating (0 to 100), Barley” value ([9]; 31 g ai/ha) was 0, the “Plant response rating (0 to 100), Barley” value ([9]; 62 g ai/ha) was 0 and the “Plant response rating (0 to 100), Barley” value ([9]; 125 g ai/ha) was 0. The “Plant response rating, Bermudagrass” value ([10]; 16 g ai/ha) was 0, the “Plant response rating (0 to 100), Bermudagrass” value ([10]; 31 g ai/ha) was 0 and the “Plant response rating (0 to 100), Bermudagrass” value ([10]; 62 g ai/ha) was 0. For the same compound, the “Plant response rating (0 to 100), Bermudagrass” value ([10]; 125 g ai/ha) was 0, the “Plant response rating, Goosegrass” value ([11]; 16 g ai/ha) was 0 and the “Plant response rating (0 to 100), Goosegrass” value ([11]; 31 g ai/ha) was 0. For the same compound, the “Plant response rating (0 to 100), Goosegrass” value ([11]; 62 g ai/ha) was 0, the “Plant response rating (0 to 100), Goosegrass” value ([11]; 125 g ai/ha) was 0 and the “Plant response rating, Foxtail, Green” value ([12]; 16 g ai/ha) was 0. For the same compound, the “Plant response rating (0 to 100), Foxtail, Green” value ([12]; 31 g ai/ha) was 0, the “Plant response rating (0 to 100), Foxtail, Green” value ([12]; 62 g ai/ha) was 0 and the “Plant response rating (0 to 100), Foxtail, Green” value ([12]; 125 g ai/ha) was 0. For the same compound, the “Plant response rating, Cupgrass, Woolly” value ([13]; 16 g ai/ha) was 5, the “Plant response rating (0 to 100), Cupgrass, Woolly” value ([13]; 31 g ai/ha) was 5 and the “Plant response rating (0 to 100), Cupgrass, Woolly” value ([13]; 62 g ai/ha) was 5. For the same compound, the “Plant response rating (0 to 100), Cupgrass, Woolly” value ([13]; 125 g ai/ha) was 5, the “Plant response rating, Cocklebur” value ([14]; 16 g ai/ha) was 10 and the “Plant response rating (0 to 100), Cocklebur” value ([14]; 31 g ai/ha) was 20. For the same compound, the “Plant response rating (0 to 100), Cocklebur” value ([14]; 62 g ai/ha) was 20, the “Plant response rating (0 to 100), Cocklebur” value ([14]; 125 g ai/ha) was 25 and the “Plant response rating, Surinam Grass” value ([15]; 16 g ai/ha) was 5. For the same compound, the “Plant response rating (0 to 100), Surinam Grass” value ([15]; 62 g ai/ha) was 5, the “Plant response rating (0 to 100), Surinam Grass” value ([15]; 125 g ai/ha) was 5 and the “Plant response rating, Windgrass” value ([16]; 16 g ai/ha) was 0. For the same compound, the “Plant response rating (0 to 100), Windgrass” value ([16]; 62 g ai/ha) was 0, the “Plant response rating (0 to 100), Windgrass” value ([16]; 125 g ai/ha) was 0 and the “Plant response rating, Deadnettle” value ([17]; 16 g ai/ha) was 0. For the same compound, the “Plant response rating (0 to 100), Deadnettle” value ([17]; 31 g ai/ha) was 0, the “Plant response rating (0 to 100), Deadnettle” value ([17]; 62 g ai/ha) was 0 and the “Plant response rating (0 to 100), Deadnettle” value ([17]; 125 g ai/ha) was 10. For the same compound, the “Goosegrass plant response rating” value ([1]; 62 g ai/ha) was 0, the “Goosegrass plant response rating” value ([1]; 125 g ai/ha) was 0 and the “Goosegrass plant response rating” value ([1]; 250 g ai/ha) was 0. For the same compound, the “Goosegrass plant response rating” value ([1]; 500 g ai/ha) was 0, the “Nutsedge, Yellow plant response rating” value ([2]; 62 g ai/ha) was 0 and the “Nutsedge, Yellow plant response rating” value ([2]; 125 g ai/ha) was 0. For the same compound, the “Nutsedge, Yellow plant response rating” value ([2]; 250 g ai/ha) was 0, the “Nutsedge, Yellow plant response rating” value ([2]; 500 g ai/ha) was 0 and the “Foxtail, Green plant response rating” value ([3]; 62 g ai/ha) was 0. For the same compound, the “Foxtail, Green plant response rating” value ([3]; 125 g ai/ha) was 0, the “Foxtail, Green plant response rating” value ([3]; 250 g ai/ha) was 0 and the “Foxtail, Green plant response rating” value ([3]; 500 g ai/ha) was 0. For the same compound, the “Johnsongrass plant response rating” value ([4]; 62 g ai/ha) was 0, the “Johnsongrass plant response rating” value ([4]; 125 g ai/ha) was 0 and the “Johnsongrass plant response rating” value ([4]; 250 g ai/ha) was 0. The “Johnsongrass plant response rating” value ([4]; 500 g ai/ha) was 0, the “Morningglory plant response rating” value ([5]; 62 g ai/ha) was 0 and the “Morningglory plant response rating” value ([5]; 125 g ai/ha) was 0. For the same compound, the “Morningglory plant response rating” value ([5]; 250 g ai/ha) was 0, the “Morningglory plant response rating” value ([5]; 500 g ai/ha) was 0 and the “Foxtail, Giant plant response rating” value ([6]; 62 g ai/ha) was 0. For the same compound, the “Foxtail, Giant plant response rating” value ([6]; 125 g ai/ha) was 0, the “Foxtail, Giant plant response rating” value ([6]; 250 g ai/ha) was 0 and the “Foxtail, Giant plant response rating” value ([6]; 500 g ai/ha) was 0.
